Test results as given in ChEMBL document CHEMBL3871297, “Squarate-based carbocyclic nucleosides: Syntheses, computational analyses and anticancer/antiviral evaluation” (2017).

experiment: Cytotoxicity against human SW620 cells assessed as cell growth at 10 uM after 2 days by SRB assay relative to control; assay type: functional; settings: SW-620, 48 h, read-out: Activity

Row | Structure (SMILES) | growth at 10 µM [%]
1 | COc1c(N[C@H]2C=C[C@@H](CO)C2)c(=O)c1=O | 105

experiment: Cytotoxicity against human OVCAR4 cells assessed as cell growth at 10 uM after 2 days by SRB assay relative to control; assay type: functional; settings: OVCAR-4, 48 h, read-out: Activity

Row | Structure (SMILES) | growth at 10 µM [%]
2 | COc1c(N[C@H]2C=C[C@@H](CO)C2)c(=O)c1=O | 109

experiment: Cytotoxicity against human HCC2998 cells assessed as cell growth at 10 uM after 2 days by SRB assay relative to control; assay type: functional; settings: HCC 2998, 48 h, read-out: Activity

Row | Structure (SMILES) | growth at 10 µM [%]
3 | COc1c(N[C@H]2C=C[C@@H](CO)C2)c(=O)c1=O | 107

experiment: Cytotoxicity against human HL-60(TB) cells assessed as cell growth at 10 uM after 2 days by SRB assay relative to control; assay type: functional; settings: HL-60, 48 h, read-out: Activity

Row | Structure (SMILES) | growth at 10 µM [%]
4 | COc1c(N[C@H]2C=C[C@@H](CO)C2)c(=O)c1=O | 96.4

experiment: Cytotoxicity against human M14 cells assessed as cell growth at 10 uM after 2 days by SRB assay relative to control; assay type: functional; settings: M14, 48 h, read-out: Activity

Row | Structure (SMILES) | growth at 10 µM [%]
5 | COc1c(N[C@H]2C=C[C@@H](CO)C2)c(=O)c1=O | 97.1

experiment: Cytotoxicity against human Hs 578T cells assessed as cell growth at 10 uM after 2 days by SRB assay relative to control; assay type: functional; settings: 48 h, read-out: Activity

Row | Structure (SMILES) | growth at 10 µM [%]
6 | COc1c(N[C@H]2C=C[C@@H](CO)C2)c(=O)c1=O | 114

experiment: Cytotoxicity against human SNB19 cells assessed as cell growth at 10 uM after 2 days by SRB assay relative to control; assay type: functional; settings: SNB-19, 48 h, read-out: Activity

Row | Structure (SMILES) | growth at 10 µM [%]
7 | COc1c(N[C@H]2C=C[C@@H](CO)C2)c(=O)c1=O | 106

experiment: Cytotoxicity against human K562 cells assessed as cell growth at 10 uM after 2 days by SRB assay relative to control; assay type: functional; settings: K562, 48 h, read-out: Activity

Row | Structure (SMILES) | growth at 10 µM [%]
8 | COc1c(N[C@H]2C=C[C@@H](CO)C2)c(=O)c1=O | 111

experiment: Cytotoxicity against human SF268 cells assessed as cell growth at 10 uM after 2 days by SRB assay relative to control; assay type: functional; settings: SF-268, 48 h, read-out: Activity

Row | Structure (SMILES) | growth at 10 µM [%]
9 | COc1c(N[C@H]2C=C[C@@H](CO)C2)c(=O)c1=O | 112

experiment: Cytotoxicity against human HCT15 cells assessed as cell growth at 10 uM after 2 days by SRB assay relative to control; assay type: functional; settings: HCT-15, 48 h, read-out: Activity

Row | Structure (SMILES) | growth at 10 µM [%]
10 | COc1c(N[C@H]2C=C[C@@H](CO)C2)c(=O)c1=O | 111

experiment: Cytotoxicity against human UACC62 cells assessed as cell growth at 10 uM after 2 days by SRB assay relative to control; assay type: functional; settings: UACC-62, 48 h, read-out: Activity

Row | Structure (SMILES) | growth at 10 µM [%]
11 | COc1c(N[C@H]2C=C[C@@H](CO)C2)c(=O)c1=O | 101

experiment: Cytotoxicity against human SNB75 cells assessed as cell growth at 10 uM after 2 days by SRB assay relative to control; assay type: functional; settings: SNB-75, 48 h, read-out: Activity

Row | Structure (SMILES) | growth at 10 µM [%]
12 | COc1c(N[C@H]2C=C[C@@H](CO)C2)c(=O)c1=O | 107

experiment: Cytotoxicity against human OVCAR5 cells assessed as cell growth at 10 uM after 2 days by SRB assay relative to control; assay type: functional; settings: OVCAR-5, 48 h, read-out: Activity

Row | Structure (SMILES) | growth at 10 µM [%]
13 | COc1c(N[C@H]2C=C[C@@H](CO)C2)c(=O)c1=O | 100

experiment: Cytotoxicity against human CCRF-CEM cells assessed as cell growth at 10 uM after 2 days by SRB assay relative to control; assay type: functional; settings: 48 h, read-out: Activity

Row | Structure (SMILES) | growth at 10 µM [%]
14 | COc1c(N[C@H]2C=C[C@@H](CO)C2)c(=O)c1=O | 108

experiment: Cytotoxicity against human OVCAR8 cells assessed as cell growth at 10 uM after 2 days by SRB assay relative to control; assay type: functional; settings: OVCAR-8, 48 h, read-out: Activity

Row | Structure (SMILES) | growth at 10 µM [%]
15 | COc1c(N[C@H]2C=C[C@@H](CO)C2)c(=O)c1=O | 94.6

experiment: Cytotoxicity against human IGROV1 cells assessed as cell growth at 10 uM after 2 days by SRB assay relative to control; assay type: functional; settings: IGROV-1, 48 h, read-out: Activity

Row | Structure (SMILES) | growth at 10 µM [%]
16 | COc1c(N[C@H]2C=C[C@@H](CO)C2)c(=O)c1=O | 93

experiment: Cytotoxicity against human MDA-MB-435 cells assessed as cell growth at 10 uM after 2 days by SRB assay relative to control; assay type: functional; settings: MDA-MB-435, 48 h, read-out: Activity

Row | Structure (SMILES) | growth at 10 µM [%]
17 | COc1c(N[C@H]2C=C[C@@H](CO)C2)c(=O)c1=O | 118

experiment: Cytotoxicity against human U251 cells assessed as cell growth at 10 uM after 2 days by SRB assay relative to control; assay type: functional; settings: U-251, 48 h, read-out: Activity

Row | Structure (SMILES) | growth at 10 µM [%]
18 | COc1c(N[C@H]2C=C[C@@H](CO)C2)c(=O)c1=O | 103

experiment: Cytotoxicity against human EKVX cells assessed as cell growth at 10 uM after 2 days by SRB assay relative to control; assay type: functional; settings: 48 h, read-out: Activity

Row | Structure (SMILES) | growth at 10 µM [%]
19 | COc1c(N[C@H]2C=C[C@@H](CO)C2)c(=O)c1=O | 125

experiment: Cytotoxicity against human HCT116 cells assessed as cell growth at 10 uM after 2 days by SRB assay relative to control; assay type: functional; settings: HCT-116, 48 h, read-out: Activity

Row | Structure (SMILES) | growth at 10 µM [%]
20 | COc1c(N[C@H]2C=C[C@@H](CO)C2)c(=O)c1=O | 95.7

experiment: Cytotoxicity against human SN12C cells assessed as cell growth at 10 uM after 2 days by SRB assay relative to control; assay type: functional; settings: 48 h, read-out: Activity

Row | Structure (SMILES) | growth at 10 µM [%]
21 | COc1c(N[C@H]2C=C[C@@H](CO)C2)c(=O)c1=O | 112

experiment: Cytotoxicity against human HOP92 cells assessed as cell growth at 10 uM after 2 days by SRB assay relative to control; assay type: functional; settings: HOP-92, 48 h, read-out: Activity

Row | Structure (SMILES) | growth at 10 µM [%]
22 | COc1c(N[C@H]2C=C[C@@H](CO)C2)c(=O)c1=O | 111

experiment: Cytotoxicity against human SKOV3 cells assessed as cell growth at 10 uM after 2 days by SRB assay relative to control; assay type: functional; settings: SK-OV-3, 48 h, read-out: Activity

Row | Structure (SMILES) | growth at 10 µM [%]
23 | COc1c(N[C@H]2C=C[C@@H](CO)C2)c(=O)c1=O | 110

experiment: Cytotoxicity against human MDA-MB-231 cells assessed as cell growth at 10 uM after 2 days by SRB assay relative to control; assay type: functional; settings: MDA-MB-231, 48 h, read-out: Activity

Row | Structure (SMILES) | growth at 10 µM [%]
24 | COc1c(N[C@H]2C=C[C@@H](CO)C2)c(=O)c1=O | 110

experiment: Cytotoxicity against human NCI-H23 cells assessed as cell growth at 10 uM after 2 days by SRB assay relative to control; assay type: functional; settings: NCI-H23, 48 h, read-out: Activity

Row | Structure (SMILES) | growth at 10 µM [%]
25 | COc1c(N[C@H]2C=C[C@@H](CO)C2)c(=O)c1=O | 108

experiment: Cytotoxicity against human NCI-H460 cells assessed as cell growth at 10 uM after 2 days by SRB assay relative to control; assay type: functional; settings: NCI-H460, 48 h, read-out: Activity

Row | Structure (SMILES) | growth at 10 µM [%]
26 | COc1c(N[C@H]2C=C[C@@H](CO)C2)c(=O)c1=O | 105

experiment: Cytotoxicity against human HOP62 cells assessed as cell growth at 10 uM after 2 days by SRB assay relative to control; assay type: functional; settings: HOP-62, 48 h, read-out: Activity

Row | Structure (SMILES) | growth at 10 µM [%]
27 | COc1c(N[C@H]2C=C[C@@H](CO)C2)c(=O)c1=O | 96

experiment: Cytotoxicity against human UACC257 cells assessed as cell growth at 10 uM after 2 days by SRB assay relative to control; assay type: functional; settings: UACC-257, 48 h, read-out: Activity

Row | Structure (SMILES) | growth at 10 µM [%]
28 | COc1c(N[C@H]2C=C[C@@H](CO)C2)c(=O)c1=O | 89

experiment: Cytotoxicity against human ACHN cells assessed as cell growth at 10 uM after 2 days by SRB assay relative to control; assay type: functional; settings: 48 h, read-out: Activity

Row | Structure (SMILES) | growth at 10 µM [%]
29 | COc1c(N[C@H]2C=C[C@@H](CO)C2)c(=O)c1=O | 104

experiment: Cytotoxicity against human NCI-H322M cells assessed as cell growth at 10 uM after 2 days by SRB assay relative to control; assay type: functional; settings: 48 h, read-out: Activity

Row | Structure (SMILES) | growth at 10 µM [%]
30 | COc1c(N[C@H]2C=C[C@@H](CO)C2)c(=O)c1=O | 108

experiment: Cytotoxicity against human NCI-H522 cells assessed as cell growth at 10 uM after 2 days by SRB assay relative to control; assay type: functional; settings: NCI-H522, 48 h, read-out: Activity

Row | Structure (SMILES) | growth at 10 µM [%]
31 | COc1c(N[C@H]2C=C[C@@H](CO)C2)c(=O)c1=O | 86.5

experiment: Cytotoxicity against human T47D cells assessed as cell growth at 10 uM after 2 days by SRB assay relative to control; assay type: functional; settings: 48 h, read-out: Activity

Row | Structure (SMILES) | growth at 10 µM [%]
32 | COc1c(N[C@H]2C=C[C@@H](CO)C2)c(=O)c1=O | 106

experiment: Cytotoxicity against human MCF7 cells assessed as cell growth at 10 uM after 2 days by SRB assay relative to control; assay type: functional; settings: MCF7, 48 h, read-out: Activity

Row | Structure (SMILES) | growth at 10 µM [%]
33 | COc1c(N[C@H]2C=C[C@@H](CO)C2)c(=O)c1=O | 94.2

experiment: Cytotoxicity against human 786-0 cells assessed as cell growth at 10 uM after 2 days by SRB assay relative to control; assay type: functional; settings: 786-0, 48 h, read-out: Activity

Row | Structure (SMILES) | growth at 10 µM [%]
34 | COc1c(N[C@H]2C=C[C@@H](CO)C2)c(=O)c1=O | 98.5

experiment: Cytotoxicity against human COLO205 cells assessed as cell growth at 10 uM after 2 days by SRB assay relative to control; assay type: functional; settings: COLO 205, 48 h, read-out: Activity

Row | Structure (SMILES) | growth at 10 µM [%]
35 | COc1c(N[C@H]2C=C[C@@H](CO)C2)c(=O)c1=O | 141

experiment: Cytotoxicity against human NCI-H226 cells assessed as cell growth at 10 uM after 2 days by SRB assay relative to control; assay type: functional; settings: NCI-H226, 48 h, read-out: Activity

Row | Structure (SMILES) | growth at 10 µM [%]
36 | COc1c(N[C@H]2C=C[C@@H](CO)C2)c(=O)c1=O | 105

experiment: Cytotoxicity against human HT-29 cells assessed as cell growth at 10 uM after 2 days by SRB assay relative to control; assay type: functional; settings: HT-29, 48 h, read-out: Activity

Row | Structure (SMILES) | growth at 10 µM [%]
37 | COc1c(N[C@H]2C=C[C@@H](CO)C2)c(=O)c1=O | 113

experiment: Cytotoxicity against human NCI/ADR-RES cells assessed as cell growth at 10 uM after 2 days by SRB assay relative to control; assay type: functional; settings: 48 h, read-out: Activity

Row | Structure (SMILES) | growth at 10 µM [%]
38 | COc1c(N[C@H]2C=C[C@@H](CO)C2)c(=O)c1=O | 107
